{
  "source": "patent US20220220075A1",
  "about": "“SOLID FORM OF AROMATIC COMPOUND AND PREPARATION METHOD THEREFOR” (Sichuan Kelun-Biotech Biopharmaceutical Co., Ltd., priority 2019, published 2022)",
  "key": {"HEK293 cells": {"test_system": "HEK293 cells", "settings": "statement in words; tests disclosed in WO2019105234A1; cited from earlier work"}, "[1]": {"assay": "High temperature stability test (purity by HPLC, XRPD)", "assay_type": "physicochemical", "settings": "60° C.; for Purity: sealed glass bottle", "procedure": "(§1) In this experimental example, the chemical stability of crystalline form A was studied by high temperature and high humidity test.\n(§2) Method for testing purity: high performance liquid chromatography (Chinese Pharmacopoeia, 2015 Edition, Four General Rules 0512) was used to test purify.\n(§3) Chromatographic column: phenyl bonded silica gel was used as filler;\n(§4) Mobile phase A: 5 mM ammonium acetate (pH 4.0);\n(§5) Mobile phase B: Acetonitrile (containing 0.05% acetic acid);\n(§6) Detection wavelength: 230 nm.\n(§7) Elution condition: gradient elution.\nThe crystalline form A was placed in a sealed and clean glass bottle, and then the glass bottle was placed in a 60° C. constant temperature drying oven, and samples were taken on the […] and the 30th day, respectively, to detect impurity contents, and the purity results were shown in Table 2."}, "HepG2 cells": {"test_system": "HepG2 cells", "settings": "statement in words; tests disclosed in WO2019105234A1; cited from earlier work"}, "hERG": {"molecular_target": "hERG (Homo sapiens, UniProt Q12809)", "sequence (Q12809 whole entry)": "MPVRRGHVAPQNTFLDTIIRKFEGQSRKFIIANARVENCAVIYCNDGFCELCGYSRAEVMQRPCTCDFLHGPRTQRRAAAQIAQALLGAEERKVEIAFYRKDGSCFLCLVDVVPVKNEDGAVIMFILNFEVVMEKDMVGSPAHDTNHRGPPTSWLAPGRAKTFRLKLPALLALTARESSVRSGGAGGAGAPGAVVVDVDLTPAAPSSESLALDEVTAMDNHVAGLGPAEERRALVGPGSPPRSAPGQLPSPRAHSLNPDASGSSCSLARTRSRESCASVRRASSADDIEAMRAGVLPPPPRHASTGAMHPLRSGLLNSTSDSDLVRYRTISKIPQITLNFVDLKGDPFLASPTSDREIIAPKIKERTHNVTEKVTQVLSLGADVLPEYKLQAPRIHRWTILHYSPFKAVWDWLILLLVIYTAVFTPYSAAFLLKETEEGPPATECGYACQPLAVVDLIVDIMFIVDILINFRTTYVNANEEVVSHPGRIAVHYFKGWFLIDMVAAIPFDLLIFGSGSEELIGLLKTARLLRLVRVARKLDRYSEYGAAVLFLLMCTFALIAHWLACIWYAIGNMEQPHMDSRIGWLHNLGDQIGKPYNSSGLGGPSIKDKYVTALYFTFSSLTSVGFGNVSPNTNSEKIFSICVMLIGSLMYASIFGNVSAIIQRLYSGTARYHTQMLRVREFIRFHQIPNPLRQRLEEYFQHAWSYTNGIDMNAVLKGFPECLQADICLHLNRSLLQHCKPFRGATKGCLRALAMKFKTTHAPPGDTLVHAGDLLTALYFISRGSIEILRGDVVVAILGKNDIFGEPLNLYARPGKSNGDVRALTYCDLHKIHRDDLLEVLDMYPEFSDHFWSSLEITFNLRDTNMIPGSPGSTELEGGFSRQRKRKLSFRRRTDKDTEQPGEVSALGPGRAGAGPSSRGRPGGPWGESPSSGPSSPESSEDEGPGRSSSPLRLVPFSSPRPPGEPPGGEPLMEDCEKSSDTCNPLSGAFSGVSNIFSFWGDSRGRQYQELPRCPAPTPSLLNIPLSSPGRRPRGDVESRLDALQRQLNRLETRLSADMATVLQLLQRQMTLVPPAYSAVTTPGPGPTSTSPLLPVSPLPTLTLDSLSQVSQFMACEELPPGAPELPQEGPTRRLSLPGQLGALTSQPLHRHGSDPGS", "settings": "statement in words; tests disclosed in WO2019105234A1; cited from earlier work"}, "[2]": {"assay": "Study on pharmacokinetics (PK) in rats", "assay_type": "in vivo, male SD rats", "settings": "PO, 5 mg/kg", "procedure": "A sample of crystalline form A was administered to male SD rats by intragastric route (PO) to investigate its pharmacokinetic characteristics. The dose was 5 mg/kg, and 0.5% MC (methylcellulose sodium) was used as a solvent to prepare a suspension of crystalline form A. In the administration group, whole blood samples were collected before PO administration (0 h) and at time points of 0.083, 0.17, 0.25, 0.5, 1, 2, 4, 6, 8 and 24 hours after administration. The whole blood samples were anticoagulated with EDTA.K2, and plasma samples were obtained after centrifugation and stored at −80° C. for later testing. In this experiment, there were three animals in each group for parallel testing.\nThe plasma samples were treated by precipitating protein and then analyzed by LC-MS/MS. Using WinNonlin 6.3 software, the pharmacokinetic parameters was calculated by means of the non-compartmental model, and the results were shown in Table 1."}, "[3]": {"assay": "High humidity stability test (purity by HPLC, XRPD)", "assay_type": "physicochemical", "settings": "25±2° C., 92.5% RH; for Purity: open dish", "procedure": "as §1, §2, §3, §4, §5, §6, §7\nThe crystalline form A of the compound of Formula I was evenly spread into an open culture dish with a thickness of ≤5 mm, and placed in a constant temperature incubator at room temperature (25±2° C.) and relative humidity of 92.5% RH. […]"}, "PPAR δ": {"molecular_target": "T1, PPAR δ (Homo sapiens, UniProt Q03181)", "T1 sequence (Q03181 1-441)": "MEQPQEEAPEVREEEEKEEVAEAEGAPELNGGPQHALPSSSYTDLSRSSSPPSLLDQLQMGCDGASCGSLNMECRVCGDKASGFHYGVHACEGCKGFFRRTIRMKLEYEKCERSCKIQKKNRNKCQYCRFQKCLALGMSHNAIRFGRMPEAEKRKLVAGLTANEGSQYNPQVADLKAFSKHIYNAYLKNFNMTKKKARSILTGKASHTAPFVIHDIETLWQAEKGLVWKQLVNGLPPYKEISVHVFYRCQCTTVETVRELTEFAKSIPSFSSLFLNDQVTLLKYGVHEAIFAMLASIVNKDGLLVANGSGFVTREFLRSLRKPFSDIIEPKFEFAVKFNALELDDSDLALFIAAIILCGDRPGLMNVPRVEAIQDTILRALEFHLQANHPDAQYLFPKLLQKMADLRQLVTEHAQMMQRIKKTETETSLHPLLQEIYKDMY", "settings": "statement in words; tests disclosed in WO2019105234A1; cited from earlier work"}, "[4]": {"settings": "rat, male SD rats, suspension in 0.5% MC, plasma"}},
  "data": [
    {"molecule": "COc1nc2ccccc2cc1C(=O)/C=C/c1cc(C)c(OC(C)(C)C(=O)O)c(C)c1", "note": "[crystalline form A, (E)-2-(4-(3-(2-methoxyquinolin-3-yl)-3-oxo-1-propen-1-yl)-2,6-dimethylphenoxy)-2-methyl-propionic acid]", "values": [
      {"measurement": "toxicity to HEK293 cells", "setting": "HEK293 cells", "value": "low toxicity"},
      {"measurement": "change of crystalline form by XRPD", "setting": "[1]; after 30 days of storage", "value": "did not change"},
      {"measurement": "Purity", "setting": "[1]; 0th day", "value": 99.51, "unit": "%"},
      {"measurement": "Purity", "setting": "[1]; 10th day", "value": 99.53, "unit": "%"},
      {"measurement": "Purity", "setting": "[1]; 30th day", "value": 99.54, "unit": "%"},
      {"measurement": "change of purity under high temperature conditions", "setting": "[1]; up to 30 days", "value": "no significant change"},
      {"measurement": "toxicity to HepG2 cells", "setting": "HepG2 cells", "value": "low toxicity"},
      {"measurement": "inhibitory effect on hERG", "setting": "hERG", "value": "no obvious inhibitory effect"},
      {"measurement": "exposure in rat plasma", "setting": "[2]", "value": "better exposure"},
      {"measurement": "AUC(0-t)", "setting": "[2]; [4]", "value": 777, "unit": "ng·h/mL"},
      {"measurement": "Cmax", "setting": "[2]; [4]", "value": 522, "unit": "ng/mL"},
      {"measurement": "change of crystalline form by XRPD", "setting": "[3]; after 30 days of storage", "value": "did not change"},
      {"measurement": "Purity", "setting": "[3]; 0th day", "value": 99.51, "unit": "%"},
      {"measurement": "Purity", "setting": "[3]; 10th day", "value": 99.53, "unit": "%"},
      {"measurement": "Purity", "setting": "[3]; 30th day", "value": 99.54, "unit": "%"},
      {"measurement": "change of purity under high humidity conditions", "setting": "[3]; up to 30 days", "value": "no significant change"},
      {"measurement": "agonistic effect on PPAR δ", "setting": "PPAR δ", "value": "obvious agonistic effect"}
    ]}
  ]
}
